Assay results reported in patent US10821115B2, “Compounds that inhibit Mcl-1 protein” (priority 2017, dated 2020).

Tests used:
[1] = test system: human multiple myeloma cell line, OPM-2; test: Cell viability assay (OPM-2 10 FBS), CellTiter-Glo; format: cell-based; settings: Homo sapiens, OPM-2, 16 h, read-out: OPM-2 10% FBS IC50 IP, OPM-2 cells, 10% FBS, 16 h incubation
How it was run: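 IC50 values come from 4-parameter logistic fits of luminescence signals reflecting cell viability. Treatment lasted 16 h at 37 °C in complete medium with 10% FBS, starting from 3000 cells/well.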

[2] = biological target: recombinant human Mcl-1 (residues 171-327) / Bim interaction (Homo sapiens (Human), UniProt Q07820); test: biochemical; format: binding; settings: 0.1 nM Mcl-1(171-327), 0.05 nM biotin-Bim (51-76); read-out: Mcl-1 HTRF IC50
recombinant human Mcl-1 (residues 171-327) / Bim interaction, sequence (Q07820 171-327): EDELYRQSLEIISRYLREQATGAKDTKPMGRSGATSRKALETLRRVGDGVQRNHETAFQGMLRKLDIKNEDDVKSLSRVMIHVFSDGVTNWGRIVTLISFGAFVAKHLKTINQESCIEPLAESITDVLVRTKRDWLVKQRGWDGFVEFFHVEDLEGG

SMILES	IC50 [1] [nM]	IC50 [2] [nM]
CCN1CCN(C[C@]2(OC)/C=C/C[C@H](C)[C@@H](C)S(=O)(=O)NC(=O)c3ccc4c(c3)N(C[C@@H]3CC[C@H]32)C[C@@]2(CCCc3cc(Cl)ccc32)CO4)CC1 [Example 247, (1S,3′R,6′R,7′S,8′E,11′S,12′R)-6-chloro-7′-((4-ethyl-1-piperazinyl)methyl)-7′-methoxy-11′,12′-dimethyl-3,4-dihydro-2H,15′H-spiro[naphthalene-1,22′-[20]oxa[13]thia[1,14]diazatetracyclo [14.7.2.0~3,6~.0~19,24~]pentacosa[8,16,18,24]tetraen]-15′-one 13′,13′-dioxide]	107	0.129
CO[C@@]1(CN2CCN(CC(F)(F)F)CC2)/C=C/C[C@H](C)[C@@H](C)S(=O)(=O)NC(=O)c2ccc3c(c2)N(C[C@@H]2CC[C@H]21)C[C@@]1(CCCc2cc(Cl)ccc21)CO3 [Example 248, (1S,3′R,6′R,7′S,8′E,11′S,12′R)-6-chloro-7′-methoxy-11′,12′-dimethyl-7′-((4-(2,2,2-trifluoroethyl)-1-piperazinyl)methyl)-3,4-dihydro-2H,15′H-spiro[naphthalene-1,22′-[20]oxa[13]thia[1,14]diazatetracyclo [14.7.2.0~3,6~.0~19,24~]pentacosa[8,16,18,24]tetraen]-15′-one 13′,13′-dioxide]	518	0.222
CO[C@@]1(CN2CCN(C(C)=O)CC2)/C=C/C[C@H](C)[C@@H](C)S(=O)(=O)NC(=O)c2ccc3c(c2)N(C[C@@H]2CC[C@H]21)C[C@@]1(CCCc2cc(Cl)ccc21)CO3 [Example 249, (1S,3′R,6′R,7′S,8′E,11′S,12′R)-7′-((4-acetyl-1-piperazinyl)methyl)-6-chloro-7′-methoxy-11′,12′-dimethyl-3,4-dihydro-2H,15′H-spiro[naphthalene-1,22′-[20]oxa[13]thia[1,14]diazatetracyclo [14.7.2.0~3,6~.0~19,24~]pentacosa[8,16,18,24]tetraen]-15′-one 13′,13′-dioxide]	114	0.063
CO[C@@]1(CN2CCN(C3COC3)CC2)/C=C/C[C@H](C)[C@@H](C)S(=O)(=O)NC(=O)c2ccc3c(c2)N(C[C@@H]2CC[C@H]21)C[C@@]1(CCCc2cc(Cl)ccc21)CO3 [Example 250, (1S,3′R,6′R,7′S,8′E,11′S,12′R)-6-chloro-7′-methoxy-11′,12′-dimethyl-7′-((4-(3-oxetanyl)-1-piperazinyl)methyl)-3,4-dihydro-2H,15′H-spiro[naphthalene-1,22′-[20]oxa[13]thia[1,14]diazatetracyclo [14.7.2.0~3,6~.0~19,24~]pentacosa[8,16,18,24]tetraen]-15′-one 13′,13′-dioxide]	47	0.071
CO[C@@]1(CN2CCN(c3ccccc3)CC2)/C=C/C[C@H](C)[C@@H](C)S(=O)(=O)NC(=O)c2ccc3c(c2)N(C[C@@H]2CC[C@H]21)C[C@@]1(CCCc2cc(Cl)ccc21)CO3 [Example 251, (1S,3′R,6′R,7′S,8′E,11′S,12′R)-6-chloro-7′-methoxy-11′,12′-dimethyl-7′-((4-phenyl-1-piperazinyl)methyl)-3,4-dihydro-2H,15′H-spiro[naphthalene-1,22′-[20]oxa[13]thia[1,14]diazatetracyclo [14.7.2.0~3,6~.0~19,24~]pentacosa[8,16,18,24]tetraen]-15′-one 13′,13′-dioxide]	3870	2.26
CO[C@@]1(CN2CCN(c3ccccn3)CC2)/C=C/C[C@H](C)[C@@H](C)S(=O)(=O)NC(=O)c2ccc3c(c2)N(C[C@@H]2CC[C@H]21)C[C@@]1(CCCc2cc(Cl)ccc21)CO3 [Example 252, (1S,3′R,6′R,7′S,8′E,11′S,12′R)-6-chloro-7′-methoxy-11′,12′-dimethyl-7′-((4-(2-pyridinyl)-1-piperazinyl)methyl)-3,4-dihydro-2H,15′H-spiro[naphthalene-1,22′-[20]oxa[13]thia[1,14]diazatetracyclo [14.7.2.0~3,6~.0~19,24~]pentacosa[8,16,18,24]tetraen]-15′-one 13′,13′-dioxide]	1800	1.38
CO[C@@]1(CN2CCN(c3cccnc3)CC2)/C=C/C[C@H](C)[C@@H](C)S(=O)(=O)NC(=O)c2ccc3c(c2)N(C[C@@H]2CC[C@H]21)C[C@@]1(CCCc2cc(Cl)ccc21)CO3 [Example 253, (1S,3′R,6′R,7′S,8′E,11′S,12′R)-6-chloro-7′-methoxy-11′,12′-dimethyl-7′-((4-(3-pyridinyl)-1-piperazinyl)methyl)-3,4-dihydro-2H,15′H-spiro[naphthalene-1,22′-[20]oxa[13]thia[1,14]diazatetracyclo [14.7.2.0~3,6~.0~19,24~]pentacosa[8,16,18,24]tetraen]-15′-one 13′,13′-dioxide]	887	0.804
CO[C@@]1(CN2CCN(c3ccncc3)CC2)/C=C/C[C@H](C)[C@@H](C)S(=O)(=O)NC(=O)c2ccc3c(c2)N(C[C@@H]2CC[C@H]21)C[C@@]1(CCCc2cc(Cl)ccc21)CO3 [Example 254, (1S,3′R,6′R,7′S,8′E,11′S,12′R)-6-chloro-7′-methoxy-11′,12′-dimethyl-7′-((4-(4-pyridinyl)-1-piperazinyl)methyl)-3,4-dihydro-2H,15′H-spiro[naphthalene-1,22′-[20]oxa[13]thia[1,14]diazatetracyclo [14.7.2.0~3,6~.0~19,24~]pentacosa[8,16,18,24]tetraen]-15′-one 13′,13′-dioxide]	544	1.2
CO[C@@]1(CN2CCN(c3nccs3)CC2)/C=C/C[C@H](C)[C@@H](C)S(=O)(=O)NC(=O)c2ccc3c(c2)N(C[C@@H]2CC[C@H]21)C[C@@]1(CCCc2cc(Cl)ccc21)CO3 [Example 255, (1S,3′R,6′R,7′S,8′E,11′S,12′R)-6-chloro-7′-methoxy-11′,12′-dimethyl-7′-((4-(1,3-thiazol-2-yl)-1-piperazinyl)methyl)-3,4-dihydro-2H,15′H-spiro[naphthalene-1,22′-[20]oxa[13]thia[1,14]diazatetracyclo [14.7.2.0~3,6~.0~19,24~]pentacosa[8,16,18,24]tetraen]-15′-one 13′,13′-dioxide]	1480	1.74
CO[C@@]1(CN2CCN(c3ncccn3)CC2)/C=C/C[C@H](C)[C@@H](C)S(=O)(=O)NC(=O)c2ccc3c(c2)N(C[C@@H]2CC[C@H]21)C[C@@]1(CCCc2cc(Cl)ccc21)CO3 [Example 256, (1S,3′R,6′R,7′S,8′E,11′S,12′R)-6-chloro-7′-methoxy-11′,12′-dimethyl-7′-((4-(2-pyrimidinyl)-1-piperazinyl)methyl)-3,4-dihydro-2H,15′H-spiro[naphthalene-1,22′-[20]oxa[13]thia[1,14]diazatetracyclo [14.7.2.0~3,6~.0~19,24~]pentacosa[8,16,18,24]tetraen]-15′-one 13′,13′-dioxide]	1640	0.433
CO[C@@]1(CN2CCN(c3cnccn3)CC2)/C=C/C[C@H](C)[C@@H](C)S(=O)(=O)NC(=O)c2ccc3c(c2)N(C[C@@H]2CC[C@H]21)C[C@@]1(CCCc2cc(Cl)ccc21)CO3 [Example 257, (1S,3′R,6′R,7′S,8′E,11′S,12′R)-6-chloro-7′-methoxy-11′,12′-dimethyl-7′-((4-(2-pyrazinyl)-1-piperazinyl)methyl)-3,4-dihydro-2H,15′H-spiro[naphthalene-1,22′-[20]oxa[13]thia[1,14]diazatetracyclo [14.7.2.0~3,6~.0~19,24~]pentacosa[8,16,18,24]tetraen]-15′-one 13′,13′-dioxide]	981	0.403
CO[C@@]1(CN2CC(N3CCOCC3)C2)/C=C/C[C@H](C)[C@@H](C)S(=O)(=O)NC(=O)c2ccc3c(c2)N(C[C@@H]2CC[C@H]21)C[C@@]1(CCCc2cc(Cl)ccc21)CO3 [Example 258, (1S,3′R,6′R,7′S,8′E,11′S,12′R)-6-chloro-7′-methoxy-11′,12′-dimethyl-7′-((3-(4-morpholinyl)-1-azetidinyl)methyl)-3,4-dihydro-2H,15′H-spiro[naphthalene-1,22′-[20]oxa[13]thia[1,14]diazatetracyclo [14.7.2.0~3,6~.0~19,24~]pentacosa[8,16,18,24]tetraen]-15′-one 13′,13′-dioxide]	95	0.069
CO[C@@]1(CN2CCN(C(=O)N(C)C)CC2)/C=C/C[C@H](C)[C@@H](C)S(=O)(=O)NC(=O)c2ccc3c(c2)N(C[C@@H]2CC[C@H]21)C[C@@]1(CCCc2cc(Cl)ccc21)CO3 [Example 259, 4-(((1S,3′R,6′R,7′S,8′E,11′S, 12′R)-6-chloro-7′-methoxy-11′,12′-dimethyl-13′,13′-dioxido-15′-oxo-3,4-dihydro-2H-spiro[naphthalene-1,22′-[20]oxa[13]thia[1,14]diazatetracyclo [14.7.2.0~3,6~.0~19,24~]pentacosa[8,16,18,24]tetraen]-7′-yl)methyl)-N,N-dimethyl-1-piperazinecarboxamide]	254	0.23
COCCN(C)C1CN(C[C@]2(OC)/C=C/C[C@H](C)[C@@H](C)S(=O)(=O)NC(=O)c3ccc4c(c3)N(C[C@@H]3CC[C@H]32)C[C@@]2(CCCc3cc(Cl)ccc32)CO4)C1 [Example 260, (1S,3′R,6′R,7′S,8′E,11′S,12′R)-6-chloro-7′-methoxy-7′-((3-((2-methoxyethyl)(methyl)amino)-1-azetidinyl)methyl)-11′,12′-dimethyl-3,4-dihydro-2H,15′H-spiro[naphthalene-1,22′-[20]oxa[13]thia[1,14]diazatetracyclo [14.7.2.0~3,6~.0~19,24~]pentacosa[8,16,18,24]tetraen]-15′-one 13′,13′-dioxide]	103	0.083
